Test results as given in PubChem BioAssay AID2060600 (Molecular Pharmacology Branch, DTP, NCI, 2025).
pIC50: −log10 of the molar value. Several values for one entry are separate records, joined by “and”; a condition that tells them apart may be missing. Equal values may be shown once.

Test system: 996289-038-R-J1-PDC complex spheroid viability
Assay: Anticancer human tumor 996289-038-R-J1-PDC patient-derived colon adenocarcinoma cell line growth inhibition [CLK]
Conditions: for viability, T/C: stronger effect = lower value; active = viability on the fitted dose curve at most 10% of control; inactive = the rest
Outline: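 Patient-derived tumor cells grown as complex spheroids with HUVEC endothelial cells and mesenchymal stem cells, treated with drug combinations. Concentrations descend in half-log steps from near clinical Cmax, or from 10 microM if Cmax unknown.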

[1] = curve of first compound, second compound 0.0316 µM
[2] = curve of first compound, second compound 0.1 µM
[3] = curve of first compound, second compound 0.316 µM
[4] = curve of first compound, second compound 1 µM
[5] = curve of first compound, second compound 3.16 µM
[6] = curve of first compound, second compound 10 µM
[7] = second compound 0.0316 µM, first compound 0.0316 µM
[8] = second compound 0.0316 µM, first compound 0.1 µM
[9] = second compound 0.0316 µM, first compound 0.316 µM
[10] = second compound 0.0316 µM, first compound 1 µM
[11] = second compound 0.1 µM, first compound 0.0316 µM
[12] = second compound 0.1 µM, first compound 0.1 µM
[13] = second compound 0.1 µM, first compound 0.316 µM
[14] = second compound 0.1 µM, first compound 1 µM
[15] = second compound 0.316 µM, first compound 0.0316 µM
[16] = second compound 0.316 µM, first compound 0.1 µM
[17] = second compound 0.316 µM, first compound 0.316 µM
[18] = second compound 0.316 µM, first compound 1 µM
[19] = second compound 1 µM, first compound 0.0316 µM
[20] = second compound 1 µM, first compound 0.1 µM
[21] = second compound 1 µM, first compound 0.316 µM
[22] = second compound 1 µM, first compound 1 µM
[23] = second compound 3.16 µM, first compound 0.0316 µM
[24] = second compound 3.16 µM, first compound 0.1 µM
[25] = second compound 3.16 µM, first compound 0.316 µM
[26] = second compound 3.16 µM, first compound 1 µM
[27] = second compound 10 µM, first compound 0.0316 µM
[28] = second compound 10 µM, first compound 0.1 µM
[29] = second compound 10 µM, first compound 0.316 µM
[30] = second compound 10 µM, first compound 1 µM
[31] = second compound 0.0316 µM, first compound 3.16 µM
[32] = second compound 0.0316 µM, first compound 10 µM
[33] = second compound 0.1 µM, first compound 3.16 µM
[34] = second compound 0.1 µM, first compound 10 µM
[35] = second compound 0.316 µM, first compound 3.16 µM
[36] = second compound 0.316 µM, first compound 10 µM
[37] = second compound 1 µM, first compound 3.16 µM
[38] = second compound 1 µM, first compound 10 µM
[39] = second compound 3.16 µM, first compound 3.16 µM
[40] = second compound 3.16 µM, first compound 10 µM
[41] = second compound 10 µM, first compound 3.16 µM
[42] = second compound 10 µM, first compound 10 µM
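Also: spheroids exposed to the agents for 7 days before readout.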

CCc1c2c(nc3ccc(O)cc13)-c1cc3c(c(=O)n1C2)COC(=O)[C@]3(O)CC + CNC(=O)c1ccc(Nc2nc(OC3CCCC3)c3c(-c4ccc5nc(C)oc5c4)c[nH]c3n2)c(OC)c1
8.08: pIC50 [5]
7.14: pIC50 [3]
6.62: pIC50 [2]
6.69: pIC50 [1]
8.07: pIC50 [6]
7.80: pIC50 [4]
inactive: viability, T/C (second compound 0.0316 µM, first compound 0.00316 µM) 115% | viability, T/C (second compound 0.0316 µM, first compound 0.01 µM) 89.4% | viability, T/C [7] 63.3% | viability, T/C [8] 61.6% | viability, T/C [9] 48.8% | viability, T/C [10] 29.3% | viability, T/C (second compound 0.1 µM, first compound 0.00316 µM) 110% | viability, T/C (second compound 0.1 µM, first compound 0.01 µM) 96.2% | viability, T/C [11] 69.9% | viability, T/C [12] 63.3% | viability, T/C [13] 49% | viability, T/C [14] 31.6% | viability, T/C (second compound 0.316 µM, first compound 0.00316 µM) 77.4% | viability, T/C (second compound 0.316 µM, first compound 0.01 µM) 68.1% | viability, T/C [15] 56.2% | viability, T/C [16] 48.1% | viability, T/C [17] 35.6% | viability, T/C [18] 21.9% | viability, T/C (second compound 1 µM, first compound 0.00316 µM) 60.8% | viability, T/C (second compound 1 µM, first compound 0.01 µM) 52.1% | viability, T/C [19] 46.6% | viability, T/C [20] 33.1% | viability, T/C [21] 25.1% | viability, T/C [22] 13.5% | viability, T/C (second compound 3.16 µM, first compound 0.00316 µM) 55.5% | viability, T/C (second compound 3.16 µM, first compound 0.01 µM) 50.2% | viability, T/C [23] 39% | viability, T/C [24] 31.2% | viability, T/C [25] 22% | viability, T/C [26] 12.8% | viability, T/C (second compound 10 µM, first compound 0.00316 µM) 54.6% | viability, T/C (second compound 10 µM, first compound 0.01 µM) 52% | viability, T/C [27] 38.9% | viability, T/C [28] 32.8% | viability, T/C [29] 23.7% | viability, T/C [30] 10.8%

C#Cc1c(F)ccc2cc(O)cc(-c3ncc4c(N5CC6CCC(C5)N6)nc(OCC56CCCN5CC(F)C6)nc4c3F)c12 (stereo not drawn) + CN1CCN(c2cc(C(=O)Nc3cc4cc(-c5cnn(C)c5)ccc4cn3)ccn2)CC1
> 7.50: pIC50 [4] | pIC50 [5] | pIC50 [6]
inactive: viability, T/C [7] 102% | viability, T/C [8] 92.2% | viability, T/C [9] 64.3% | viability, T/C [10] 52.9% | viability, T/C [31] 34.8% | viability, T/C [32] 28.4% | viability, T/C [11] 85.5% | viability, T/C [12] 71.2% | viability, T/C [13] 58.1% | viability, T/C [14] 45% | viability, T/C [33] 28.6% | viability, T/C [34] 22.2% | viability, T/C [15] 58.7% | viability, T/C [16] 50.2% | viability, T/C [17] 35.9% | viability, T/C [18] 26.7% | viability, T/C [35] 20.7% | viability, T/C [36] 16.6%
6.02: pIC50 [1]
active: viability, T/C [19] 4.83% | viability, T/C [20] 4.1% | viability, T/C [21] 3.5% | viability, T/C [22] 2.81% | viability, T/C [37] 2.14% | viability, T/C [38] 2.96% | viability, T/C [23] 1.47% | viability, T/C [24] 1.31% | viability, T/C [25] 1.59% | viability, T/C [26] 0.95% | viability, T/C [39] 0.67% | viability, T/C [40] 0.45% | viability, T/C [27] 0.72% | viability, T/C [28] 0.61% | viability, T/C [29] 1.23% | viability, T/C [30] 0.99% | viability, T/C [41] 0.36% | viability, T/C [42] 0.65%
6.23: pIC50 [2]
7.03: pIC50 [3]

CCCS(=O)(=O)Nc1ccc(F)c(C(=O)c2c[nH]c3ncc(-c4ccc(Cl)cc4)cc23)c1F + CNC(=O)c1ccc(Nc2nc(OC3CCCC3)c3c(-c4ccc5nc(C)oc5c4)c[nH]c3n2)c(OC)c1
5.35: pIC50 [6]
5.33: pIC50 [5]
5.25: pIC50 [4]
5.03: pIC50 [3]
< 5.00: pIC50 [1] | pIC50 [2]
inactive: viability, T/C [7] 125% | viability, T/C [8] 105% | viability, T/C [9] 120% | viability, T/C [10] 131% | viability, T/C [31] 124% | viability, T/C [32] 83.4% | viability, T/C [11] 116% | viability, T/C [12] 133% | viability, T/C [13] 124% | viability, T/C [14] 118% | viability, T/C [33] 119% | viability, T/C [34] 76.7% | viability, T/C [15] 81.2% | viability, T/C [16] 84.5% | viability, T/C [17] 82.8% | viability, T/C [18] 84.8% | viability, T/C [35] 82.7% | viability, T/C [36] 48% | viability, T/C [19] 73.2% | viability, T/C [20] 70% | viability, T/C [21] 64.9% | viability, T/C [22] 70.6% | viability, T/C [37] 64.8% | viability, T/C [38] 35.6% | viability, T/C [23] 63.8% | viability, T/C [24] 67.5% | viability, T/C [25] 64.1% | viability, T/C [26] 68.1% | viability, T/C [39] 58.4% | viability, T/C [40] 31.8% | viability, T/C [27] 62.9% | viability, T/C [28] 60.2% | viability, T/C [29] 59.8% | viability, T/C [30] 66.9% | viability, T/C [41] 60.3% | viability, T/C [42] 26.1%

Nc1ccccc1NC(=O)c1ccc(CNC(=O)OCc2cccnc2)cc1
5.19 and 5.13: pIC50 (curve of compound)
inactive: viability, T/C (compound 0.0316 µM) 88.5% and 105% | viability, T/C (compound 0.1 µM) 89.2% and 81.2% | viability, T/C (compound 0.316 µM) 91.8% and 98.1% | viability, T/C (compound 1 µM) 87.1% and 85% | viability, T/C (compound 3.16 µM) 61.8% and 65.7% | viability, T/C (compound 10 µM) 42.5% and 44.2%
